Assay results as given in paper PMC8649774, “A New Class of Cell Wall-Recycling L,D-Carboxypeptidase Determines β-Lactam Susceptibility and Morphogenesis in Acinetobacter baumannii” (mBio, 2021).

Target: T1, ElsL (ElsLHis) (Acinetobacter baumannii, UniProt A0ABX6CN83)
T1 construct: gene FQU82_03167; leaderless cytoplasmic YkuD-domain protein, C-terminal 6xHis (pET28b), expressed in E. coli BL21(DE3), Ni-NTA purified with TCEP
Test: UPLC-MS of reaction products
Format: biochemical
Settings: 100 mM Tris-HCl, 37 °C, 2 h, 10 ng enzyme; M4 purified from Caulobacter crescentus sacculi

How did the “UPLC-MS of reaction products” value turn out when `CC(=O)N[C@H]1[C@H](O[C@H]2[C@H](O[C@H](C)C(=O)N[C@@H](C)C(=O)N[C@H](CCC(=O)N[C@@H](CCC[C@@H](N)C(=O)O)C(=O)N[C@H](C)C(=O)O)C(=O)O)[C@@H](NC(C)=O)C(O)O[C@@H]2CO)O[C@H](CO)[C@@H](O)[C@@H]1O` (stereo partly shown) [M4, murotetrapeptide] was run?
The value was “ElsL completely cleaved the M4 substrate to the disaccharide tripeptide (M3)”.
